Key:
[1] = target: T1, human capsaicin receptor (Homo sapiens, UniProt Q8NER1); assay: Calcium mobilization assay, capsaicin agonist response (Example 6); type: cell-based; settings: capsaicin positive control, cells expressing human capsaicin receptor; read-out: approximate EC90 concentration
T1 construct: transfected with the pBK-CMV expression construct encoding the full length human capsaicin receptor; expressed in transfected cells; host or cells: HEK293, stably transfected clonal lines, plasmid pBK-CMV
T1 sequence (Q8NER1 whole entry): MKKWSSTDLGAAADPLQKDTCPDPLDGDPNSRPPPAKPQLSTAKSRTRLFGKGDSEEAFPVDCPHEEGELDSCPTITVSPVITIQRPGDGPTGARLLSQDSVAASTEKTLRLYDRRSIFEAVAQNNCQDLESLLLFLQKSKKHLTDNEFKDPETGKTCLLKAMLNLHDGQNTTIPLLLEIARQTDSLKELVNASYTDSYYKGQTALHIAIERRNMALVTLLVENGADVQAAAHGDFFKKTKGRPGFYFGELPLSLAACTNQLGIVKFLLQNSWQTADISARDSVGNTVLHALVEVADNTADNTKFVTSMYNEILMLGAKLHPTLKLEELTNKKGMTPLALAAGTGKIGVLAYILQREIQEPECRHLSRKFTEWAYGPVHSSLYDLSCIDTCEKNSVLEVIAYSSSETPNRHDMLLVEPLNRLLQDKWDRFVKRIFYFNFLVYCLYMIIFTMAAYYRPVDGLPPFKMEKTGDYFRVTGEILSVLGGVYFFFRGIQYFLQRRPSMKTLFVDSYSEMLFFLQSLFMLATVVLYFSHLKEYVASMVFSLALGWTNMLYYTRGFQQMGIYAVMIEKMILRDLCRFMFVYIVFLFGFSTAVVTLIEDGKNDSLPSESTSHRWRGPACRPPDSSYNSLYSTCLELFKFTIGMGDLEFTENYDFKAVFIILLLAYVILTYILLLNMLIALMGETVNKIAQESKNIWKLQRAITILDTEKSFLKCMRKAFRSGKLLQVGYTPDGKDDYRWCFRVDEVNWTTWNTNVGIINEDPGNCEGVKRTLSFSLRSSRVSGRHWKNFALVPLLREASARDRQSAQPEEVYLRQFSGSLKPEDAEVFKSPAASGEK
Experimental: Cells transfected with expression plasmids (as described in Example 4) and thereby expressing human capsaicin receptor are seeded and grown to 70-90% confluency in FALCON black-walled, clear-bottomed 96-well plates (#3904, BECTON-DICKINSON, Franklin Lakes, N.J.). The culture medium is emptied from the 96 well plates and FLUO-3 AM calcium sensitive dye (Molecular Probes, Eugene, Oreg.) is added to each well (dye solution: 1 mg FLUO-3 AM, 440 μL DMSO and 440 μl 20% pluronic acid in DMSO, diluted 1:250 in Krebs-Ringer HEPES (KRH) buffer (25 mM HEPES, 5 mM KCl, 0.96 mM NaH2PO4, 1 mM MgSO4, 2 mM CaCl2, 5 mM glucose, 1 mM probenecid, pH 7.4), 50 μl diluted solution per well). […]
To measure the ability of a test compound to agonize or antagonize a calcium mobilization response in cells expressing capsaicin receptors to capsaicin or other vanilloid agonist, the EC50 of the agonist capsaicin is first determined. […] Capsaicin-induced calcium mobilization is monitored using either FLUOROSKAN ASCENT (Labsystems; Franklin, Mass.) or FLIPR (fluorometric imaging plate reader system; Molecular Devices, Sunnyvale, Calif.) instruments. […] In this equation, y is the maximum fluorescence signal, x is the concentration of the agonist or antagonist (in this case, capsaicin), a is the Emax, b corresponds to the EC50 value and c is the Hill coefficient. […]

[2] = target: T1, human capsaicin receptor; assay: Calcium mobilization assay, determination of antagonist activity (Example 6); type: cell-based; settings: concentration giving 50% decrease in the fluorescence response of cells expressing human capsaicin receptor exposed to capsaicin
Experimental: A cDNA encoding full length human capsaicin receptor (SEQ ID NO:1, 2 or 3 of U.S. Pat. No. 6,482,611) was subcloned in the plasmid pBK-CMV (Stratagene, La Jolla, Calif.) for recombinant expression in mammalian cells.
Human embryonic kidney (HEK293) cells were transfected with the pBK-CMV expression construct encoding the full length human capsaicin receptor using standard methods. The transfected cells were selected for two weeks in media containing G418 (400 μg/ml) to obtain a pool of stably transfected cells. Independent clones were isolated from this pool by limiting dilution to obtain clonal stable cell lines for use in subsequent experiments.
Cells transfected with expression plasmids (as described in Example 4) and thereby expressing human capsaicin receptor are seeded and grown to 70-90% confluency in FALCON black-walled, clear-bottomed 96-well plates (#3904, BECTON-DICKINSON, Franklin Lakes, N.J.). The culture medium is emptied from the 96 well plates and FLUO-3 AM calcium sensitive dye (Molecular Probes, Eugene, Oreg.) is added to each well (dye solution: 1 mg FLUO-3 AM, 440 μL DMSO and 440 μl 20% pluronic acid in DMSO, diluted 1:250 in Krebs-Ringer HEPES (KRH) buffer (25 mM HEPES, 5 mM KCl, 0.96 mM NaH2PO4, 1 mM MgSO4, 2 mM CaCl2, 5 mM glucose, 1 mM probenecid, pH 7.4), 50 μl diluted solution per well). Plates are covered with aluminum foil and incubated at 37° C. for 1-2 hours in an environment containing 5% CO2. After the incubation, the dye is emptied from the plates, and the cells are washed once with KRH buffer, and resuspended in KRH buffer.
To measure the ability of a test compound to agonize or antagonize a calcium mobilization response in cells expressing capsaicin receptors to capsaicin or other vanilloid agonist, the EC50 of the agonist capsaicin is first determined. An additional 20 μl of KRH buffer and 1 μl DMSO is added to each well of cells, prepared as described above. 100 μl capsaicin in KRH buffer is automatically transferred by the FLIPR instrument to each well. Capsaicin-induced calcium mobilization is monitored using either FLUOROSKAN ASCENT (Labsystems; Franklin, Mass.) or FLIPR (fluorometric imaging plate reader system; Molecular Devices, Sunnyvale, Calif.) instruments. Data obtained between 30 and 60 seconds after agonist application are used to generate an 8-point concentration response curve, with final capsaicin concentrations of 1 nM to 3 μM. […] software (Synergy Software, Reading, Pa.) is used to fit the data to the equation: y=a*(1/(1+(b/x)^c)) to determine the 50% excitatory concentration (EC50) for the response. In this equation, y is the maximum fluorescence signal, x is the concentration of the agonist or antagonist (in this case, capsaicin), a is the Emax, b corresponds to the EC50 value and c is the Hill coefficient. Determination Agonist Activity
Test compounds are dissolved in DMSO, diluted in 20 μl KRH buffer so that the final concentration of test compounds in the assay well is between 1 μM and 5 μM, and added to cells prepared as described above. The 96 well plates containing prepared cells and test compounds are incubated in the dark, at room temperature for 0.5 to 6 hours. It is important that the incubation not continue beyond 6 hours. Just prior to determining the fluorescence response, 100 μl capsaicin in KRH buffer at twice the EC50 concentration determined as described above is automatically added by the FLIPR instrument to each well of the 96 well plate for a final sample volume of 200 μl and a final capsaicin concentration equal to the EC50. The final concentration of test compounds in the assay wells is between 1 μM and 5 μM.

Row | Structure (SMILES) | EC90 [1] | IC50 [2]
1 | COc1cc(CNC(=O)CCCC/C=C/C(C)C)ccc1O [capsaicin] | ~100 nM | 
2 | CC(C)(C)c1ccc(Nc2nc(NCc3ccccc3Cl)nc(NCc3ccccc3Cl)n2)cc1 [Compound 54, N-(4-tert-Butyl-phenyl)-N′,N″-bis-(2-chloro-benzyl)-[1,3,5]triazine-2,4,6-triamine] |  | ≤ 1000 nM
3 | CC(C)(O)CCNc1nc(Nc2ccc(C(F)(F)F)cc2)nc(OCc2ccccc2C(F)(F)F)n1 [Compound 24, 2-Methyl-4-[4-(2-trifluoromethyl-benzyloxy)-6-(4-trifluoromethyl-phenylamino)-[1,3,5]triazin-2-ylamino]-butan-2-ol] |  | ≤ 1000 nM
4 | CC(C)CNc1nc(Nc2ccc(C(F)(F)F)cc2)nc(OCc2ccccc2C(F)(F)F)n1 [Compound 66, N-Isobutyl-6-(2-trifluoromethyl-benzyloxy)-N′-(4-trifluoromethyl-phenyl)-[1,3,5]triazine-2,4-diamine] |  | ≤ 1000 nM
5 | CCOc1nc(Nc2ccc(C(F)(F)F)cc2)nc(OCc2ccccc2C(F)(F)F)n1 [Compound 20, [4-Ethoxy-6-(2-trifluoromethyl-benzyloxy)-[1,3,5]triazin-2-yl]-(4-trifluoromethyl-phenyl)-amine] |  | ≤ 1000 nM

Reference: patent US20070161637A1, “Substituted pyridin-2-ylamine analogues” (Neurogen Corporation, priority 2003, published 2007)
